Assay results taken from PubChem BioAssay AID2252 (Southern Research Specialized Biocontainment Screening …, 2010).
Several values for one entry are separate records, joined by “and”; a condition that tells them apart may be missing. Equal values may be shown once.

system: THP-1 viability, CellTiter-Glo luminescence, 72 h; assay: PubChem AID 2252

| SMILES | EC50 |
| --- | --- |
| Oc1ccc(C=Nc2ccc3ncccc3c2)c(O)c1 | 16.5 µM |
| O=C(Nc1ccc(Nc2ccncc2)cc1)c1ccc([N+](=O)[O-])cc1 | 11.9 µM |
| CCCCCOc1ccc(CSC(=N)N)cc1[N+](=O)[O-] | 14 µM |
| Oc1cccc(Nc2nc(NCC3CCCO3)c3ccccc3n2)c1 (stereo unspecified) | 1.36 µM |
| CN(C)c1ccc2nc3ccc(=[N+](C)C)cc-3sc2c1 | 0.72 µM |
| CCCCCc1ccc(OCCC[n+]2ccccc2)c(CCCCC)c1 | 1.59 µM |
| COc1ccc2sc(N(CCCN(C)C)C(=O)c3ccc(S(=O)(=O)N4CCc5ccccc5C4)cc3)nc2c1 | 4.42 µM |
| CNCC[C@H](Oc1cccc2ccccc12)c1cccs1 | 18.3 µM |
| Cc1ccc(-c2c[n+](Cc3ccc(Cl)cc3)c3n2CCC3)cc1 | 10.1 µM |
| CCCCCCCCCCOC(=O)Cn1c(COc2ccc(OC)cc2)[n+](C)c2ccccc21 | 4.04 µM and 2.21 µM |
| ON=C1/C(=N\O)CC2(C/C1=N/O)OCCO2 | 33.2 µM |
| CC(Oc1ccc(Br)cc1)c1nc2c3ccccc3nc(=S)n2[nH]1 (stereo unspecified) | 17.9 µM |
| COc1cccc(-c2nnc(NC(=O)c3ccc(Cl)s3)o2)c1 | 15 µM |
| c1ccc(Sc2cccc3ccccc23)c(CNC2=NCCN2)c1 | 5.87 µM |
| CCOC(=O)c1c(C)sc2c1N(C(C)=O)c1cc(Cl)ccc1S2 | 44.1 µM |
| CCn1nnc(NC(=O)c2ccc([N+](=O)[O-])o2)n1 | 13.6 µM |
| CCCCCCCSc1cc(OC)c(CCNC)cc1OC | 10.2 µM |
| COc1ccccc1C(C[N+](=O)[O-])c1c(N)n(C)c(=O)n(C)c1=O (stereo unspecified) | 8.91 µM |
| CCCCc1ccc(NC2=NCCCS2)cc1 | 21.3 µM |
| COc1ccc(CSCCN)cc1Cl | 44.9 µM |
| CC1Cc2ccccc2N1S(=O)(=O)c1cccc(C(=O)N2CC(=O)Nc3ccccc32)c1 (stereo unspecified) | 46.1 µM |
| CC1CC(C)CN(C(=O)c2ccc(NC(=O)c3ccc(=O)[nH]c3)cc2)C1 (stereo unspecified) | 33 µM |
| CC(Nc1nc(N2CCCC2)nc2ccccc12)c1ccccc1 (stereo unspecified) | 9.31 µM |

| SMILES | EC50 |
| --- | --- |
| Cc1cc(NC2CCCCC2)nc(NCc2ccccc2)n1 | 14.9 µM |
| O=C(NC(=S)NNC(=O)c1cccs1)c1ccc(Br)o1 | 27.5 µM |
| CCCCC(=O)NNC(=S)NC(=O)CCC | 46 µM |
| C#CCOCCOCCOCCNc1nc(N2CCN(C(=O)CCCCCCCCCCNC(=O)[C@@H](CCSC)n3cc(CCO)nn3)CC2)nc(N2CCN(C(=O)CCCCCCCCCCNC(=O)[C@H]([C@@H](C)CC)n3cc(CCCCN=C(N)N)nn3)CC2)n1 | 9.78 µM |
| CCCOc1ccc(C(=O)NNC(=S)NC(=O)CC)cc1 | 2.81 µM |
| Cc1[nH]nc2c1C(c1ccc(-c3ccccc3C#N)o1)C(C#N)=C(N)O2 (stereo unspecified) | 30.6 µM |
| Cc1cc([N+](=O)[O-])nn1CC(=O)N/N=C/c1ccccc1O | 6.62 µM |
| CC1CCN(CC(CS(=O)(=O)c2ccc([N+](=O)[O-])cc2)N2CCC(C)CC2)CC1 (stereo unspecified) | 14.6 µM |
| Oc1c(CN2CCCCC2)cc(Br)c2cccnc12 | 2.65 µM |
| Cc1ccc(-c2cc(N)nc(-c3ccccc3)c2)cc1 | 28.6 µM |
| O=C(N/N=C/c1ccccn1)c1cccs1 | 26.4 µM |
| Cc1ccc2nc(N(CCCN(C)C)C(=O)c3sc4ccccc4c3Cl)sc2c1 | 28.1 µM |
| COC(=O)C1C(O)C(C)C(O)C(C)(O)/C=C\C=C(/C)C(=O)Nc2c(C)c(OC(C)=O)c3c(c2O)C(=O)C(C)=C2OCOC(=C23)/C(C)=C/C(C)(O)C(O)C(C)C1O (stereo unspecified) | < 0.1 µM |
| COc1cc2c(cc1OC)[C@H](Cc1ccc(O)cc1)NCC2 | 23.4 µM |
| O=C(/C=C/c1ccc(F)cc1)NC(=S)NNC(=O)c1cnccn1 | 6.17 µM |
| CCCCCC[N+](C)(C)CC/C=C1/c2ccccc2Sc2ccc(Cl)cc21 | 5.39 µM |
| Cc1[nH]c2ccc(OC(F)(F)F)cc2c1CCNCc1ccc(Cl)cc1 | 4.99 µM |
| O=C(N/N=C/c1cccc(OCc2ccccc2)c1)c1cccs1 | 40.4 µM |
| COc1cc(CNCCO)cc(Cl)c1OCc1ccc(Cl)cc1Cl | 10.8 µM |
| CCCCCCOC(=O)C[N+](C)(C)CCOC1CC2CCC1(C)C2(C)C (stereo unspecified) | 2.08 µM |
| Brc1ccc2c(c1)CN1CCCC1=N2 | 28.6 µM |
| NC1=C(Br)C(=O)c2ccccc2C1=O | 9 µM |
| CCCCCOc1ccc(CSC2=NCCN2)cc1[N+](=O)[O-] | 20 µM |
